Reference: patent US20040162353A1 (priority 2000, published 2004)
Several values for one entry are separate records, joined by “and”; a condition that tells them apart may be missing. Equal values may be shown once. Entries after “also recorded” stand apart in the source; their conditions may differ.

Experiments:
mouse epidermis = settings: topically applied five percent solution of DFMO; cited from earlier work
[1] = tested on: polyamines in rat prostate; settings: two weeks of 100 mg/kg DFMO, cited from earlier work
cutaneous spermine = settings: ten percent DFMO cream; ten patients suffering from psoriasis; cited from earlier work
prostate tumor = settings: rat, in vivo, ip; cited from earlier work
[2] = tested on: matrilysin expression in LNCaP human prostate cancer derived cells; test: IL-1β-induced matrilysin expression in LNCaP cells; type: cell-based
Text: As indicated earlier, DFMO acts late in the tumor promotion stage of epithelial carcinogenesis.

[3] = Side effects and coagulation parameters in men taking oral DFMO; type: in vivo, human
Text: (§1) This protocol was approved by the investigational review board of the University of California Irvine and the Long Beach Veterans Administration Medical Center. Men between the ages of 50 and 85, who were undergoing a trans-rectal prostate needle biopsy for either an elevated PSA or abnormal rectal exam, signed a written consent to undergo four additional core needle biopsies of the peripheral zone at the time of their, routine extant biopsy. The additional four biopsies were immediately frozen liquid nitrogen and stored in the minus 70-degree freezer. The […] biopsy was sent to Pathology for routine analysis. […] Patients were monitored for side effects using questionnaires and interview techniques. Coagulation parameters were carefully assessed prior to surgery. In the operating room just prior to the surgical procedure four trans-rectal core biopsies of the peripheral zone were taken and frozen. The pre and post DFMO specimens were sent together to Arizona on dry ice for histology and polyamine analysis. Radical prostatectomy specimens were staged according to the TMN updated 1997 staging system (American Joint Committee on Cancer 1997).

[4] = tested on: human prostate polyamine levels and ODC activity; settings: cited from earlier work
prostatic ODC = target: T1, prostatic ODC (Rattus norvegicus, UniProt P09057); settings: cited from earlier work
T1 construct: from tissue; host or cells: rat prostate (animals treated in vivo with DFMO)
T1 sequence (P09057 1-461): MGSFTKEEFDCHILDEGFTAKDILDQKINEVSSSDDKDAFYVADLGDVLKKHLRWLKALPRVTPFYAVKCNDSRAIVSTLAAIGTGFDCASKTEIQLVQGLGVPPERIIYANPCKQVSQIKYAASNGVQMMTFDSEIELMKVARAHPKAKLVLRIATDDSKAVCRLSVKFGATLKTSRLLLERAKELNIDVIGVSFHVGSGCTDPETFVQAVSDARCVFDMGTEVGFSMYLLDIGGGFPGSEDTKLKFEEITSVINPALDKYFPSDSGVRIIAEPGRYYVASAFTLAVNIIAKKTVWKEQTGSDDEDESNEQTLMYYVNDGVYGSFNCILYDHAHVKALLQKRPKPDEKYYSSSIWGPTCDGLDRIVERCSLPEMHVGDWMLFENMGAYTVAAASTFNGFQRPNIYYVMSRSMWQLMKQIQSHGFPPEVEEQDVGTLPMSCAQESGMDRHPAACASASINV

ODC = target: T2, ODC (Homo sapiens, UniProt P11926); settings: concentrations from 0.6 μM to 80 μM; three separate studies; cited from earlier work
T2 sequence (P11926 1-461): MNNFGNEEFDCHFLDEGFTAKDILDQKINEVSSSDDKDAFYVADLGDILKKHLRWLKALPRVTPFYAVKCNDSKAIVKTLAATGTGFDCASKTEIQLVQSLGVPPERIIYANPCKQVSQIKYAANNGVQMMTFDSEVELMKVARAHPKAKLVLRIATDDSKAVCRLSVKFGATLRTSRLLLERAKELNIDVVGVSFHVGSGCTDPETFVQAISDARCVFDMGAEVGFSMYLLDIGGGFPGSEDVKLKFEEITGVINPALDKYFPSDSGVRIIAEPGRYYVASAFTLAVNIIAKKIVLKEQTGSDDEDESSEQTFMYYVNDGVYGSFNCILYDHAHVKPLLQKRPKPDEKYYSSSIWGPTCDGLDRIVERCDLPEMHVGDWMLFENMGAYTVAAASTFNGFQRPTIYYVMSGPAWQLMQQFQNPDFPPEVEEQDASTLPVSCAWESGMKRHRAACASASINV

[5] = tested on: tumors harboring Ki-ras mutations; settings: AOM-treated rats; reduced from 90%; cited from earlier work
[6] = tested on: polyamines (putrescine, spermidine, spermine) in the human prostate; test: Prostate core biopsy polyamine content before and after 28 days of oral DFMO; type: in vivo; settings: oral DFMO 0.5 gm/m^2 for 28 days
Text: This protocol was approved by the investigational review board of the University of California Irvine and the Long Beach Veterans Administration Medical Center. Men between the ages of 50 and 85, who were undergoing a trans-rectal prostate needle biopsy for either an elevated PSA or abnormal rectal exam, signed a written consent to undergo four additional core needle biopsies of the peripheral zone at the time of their, routine extant biopsy. The additional four biopsies were immediately frozen liquid nitrogen and stored in the minus 70-degree freezer. The […] biopsy was sent to Pathology for routine analysis. […] Patients were monitored for side effects using questionnaires and interview techniques. Coagulation parameters were carefully assessed prior to surgery. In the operating room just prior to the surgical procedure four trans-rectal core biopsies of the peripheral zone were taken and frozen. The pre and post DFMO specimens were sent together to Arizona on dry ice for histology and polyamine analysis. Radical prostatectomy specimens were staged according to the TMN updated 1997 staging system (American Joint Committee on Cancer 1997). To determine prostate core polyamine contents, cores were first thawed, washed in phosphate buffered saline (PBS) and weighted. Samples were then minced in 0.2 N perchloric acid and sonicated to disrupt cellular material. Samples were centrifuged at 2,000×g for 5 minutes to separate acid soluble and insoluble fractions. The acid soluble fraction was evaluated for polyamine contents, using reverse-phase, ion-pared high performance liquid chromatography (PHLC) methods, as described elsewhere ([…] et al. 1994; […] et al 1994; […] et al. 1998). Briefly, polyamines are separated on a C18 B Ondapak column, derivatized with […] separation and detected by absorption of the derivatized material at 750 nm. Mean, median, and range for polyamine levels are reported in nmol/mg protein. The limit of detection of our method is 0.01 nmol/mg. Histological Changes were assessed by bright field microscopy methods. Pre- and post DFMO polyamine values were compared using the Wilcoxon matched-pairs signed rank test. Thus, for each patient we were able to take into account both the magnitude and the direction of changes in polyamines due to DFMO.

PSA = test: Serum PSA in men taking oral DFMO; type: in vivo, human
Text: as §1

[7] = tested on: PSMA messenger RNA in LNCaP prostate cancer cell line; settings: LNCaP cells after exposure to DHT; cited from earlier work
prostate cancer [8] = settings: oral fenretinide; 22 men at high risk; trial closed early; cited from earlier work
prostate cancer [9] = settings: one year of Proscar; 1 of 25 men with no treatment; p=0.025; cited from earlier work
[10] = oral DFMO 0.5 gm/m^2, about 28 days
[11] = two weeks of DFMO 0.5 gm/m^2 orally

NCCC[C@](N)(C(=O)O)C(F)F [DFMO, alpha-difluoromethylornithine]
spermine and spermidine levels (mouse epidermis): not affected | putrescine in rat prostate after DFMO ([1]; control 202±37): 4 ± 4 nmol/g | spermine in rat prostate after DFMO ([1]; control 2968±293, no significant reduction): 2741±346 | spermidine in rat prostate after DFMO ([1]; control 7334±193): 1188±289 | improvement in psoriatic lesions (cutaneous spermine): marginal improvement | reduction of cutaneous spermine levels (cutaneous spermine): sixty-six percent | systemic toxicity (prostate tumor): no systemic toxicity | interleukin-1β (IL-1β)-induced matrilysin expression [2]: suppresses | bleeding time prior to surgery [3, 10]: not altered | change in platelet counts or protime [3, 10]: no clinically significant change | men reporting side effects ([3]; oral DFMO 0.5 gm/m^2, average 28.2 days, grade 0 to 1): four men | toxicity ([4]; fourteen men completed two weeks of DFMO): no toxicity | ODC activity, DFMO vs placebo ([4]; two weeks of DFMO 0.5 gm/m^2): no differences | mean putrescine level in prostate cores ([4]; two weeks of DFMO 0.5 gm/m^2, placebo 1.95, p=0.03): 1.43 | spermidine level, DFMO vs placebo [4, 11]: no differences; also recorded: failed to detect any reduction | spermine level, DFMO vs placebo [4, 11]: no differences; also recorded: failed to detect any reduction | prostatic ODC reduction compared to control (prostatic ODC; by 24 hrs, 100 mg/kg every 12 hrs i.p.): 50% | sustained suppression of prostatic ODC activity, remaining activity (prostatic ODC; throughout the two week study): 50 % of baseline activity | inhibition of ODC activity (ODC): inhibitory | number of tumors harboring Ki-ras mutations [5]: 36% | range of spermine level after DFMO ([6]; n=9): 3.24 to 25.58 nmol/mg | spermidine average percent decrease from baseline ([6]; n=9, p=0.004): 73.6% and 74% | spermine average decrease from baseline ([6]; n=9, p=0.004): 50.8% and 51% | average level of spermine after DFMO ([6]; n=9, pre-DFMO average 29.14): 14.33 nmol/mg | median level of spermine after DFMO ([6]; n=9, pre-DFMO median 28.85): 17.40 nmol/mg | average level of spermidine after therapy ([6]; n=9, pretreatment average 1.21): 0.32 nmol/mg | median level of spermidine after therapy ([6]; n=9, pretreatment median 0.81): 0.21 nmol/mg | putrescine level after DFMO ([6]; prostate core biopsy, all nine men, detection limit 0.01 nmol/mg): undetectable | putrescine average decrease from baseline ([6]; six men with pre-DFMO putrescine ≧0.01, p=0.031): 97.6% and 98% | PSA change on DFMO, patients with malignant pathology (PSA; five patients, increase in patients 3,8,9): increased in 3 of 5 | PSA change on DFMO, patients with final benign pathology (PSA; four patients (1,4,5,7), pre-biopsy or pre-DFMO PSA vs PSA on DFMO): decreased in each patient | Pre-op PSA (PSA; individual patients 1-9, drawn while on DFMO): 3.7 ng/ml and 7.5 ng/ml and 2.5 ng/ml and 1.4 ng/ml and 5 ng/ml and 2.3 ng/ml and 6.8 ng/ml and 35.5 ng/ml and 8.2* ng/ml

C[C@]12CCC(=O)C[C@@H]1CC[C@@H]1[C@@H]2CC[C@]2(C)[C@@H](O)CC[C@@H]12 [5-α-dihydroxytestosterone]
down-regulation of PSMA mRNA [7]: 8-10 fold

CC1=C(/C=C/C(C)=C/C=C/C(C)=C/C(=O)Nc2ccc(O)cc2)C(C)(C)CCC1 [fenretinide]
men with negative prestudy biopsies who developed malignancy while on study (prostate cancer [8]): 8 men

NCCC[C@](N)(C(=O)O)C(F)F [L-DFMO]
inhibition of ODC activity (ODC): inhibitory

CN1C(C(=O)Nc2ccccn2)=C(O)c2ccccc2S1(=O)=O [piroxicam]
number of tumors harboring Ki-ras mutations [5]: 25%

CC(C)(C)NC(=O)[C@H]1CC[C@H]2[C@@H]3CC[C@H]4NC(=O)C=C[C@]4(C)[C@H]3CC[C@]12C [Proscar, finasteride]
men with cancer diagnosed at one year follow up biopsy (prostate cancer [9]): 8 of 27

NCCC[C@@](N)(C(=O)O)C(F)F [D-DFMO]
inhibition of ODC activity (ODC): inhibitory
